Calls of active or inactive are those of the source. No cut-off for these calls is given here.
What was measured:
Mus musculus [1] = assay: Toxicity in albino mouse at 400 mg/kg, ip qd for 7 days measured after 7 days; type: organism-based; set-up: dose 400 mg/kg, route intraperitoneal; details: in vivo, 168 h
[2] = Retardation factor, Rf of the compound by paper chromatographic analysis; type: physicochemical
Mus musculus [3] = organism: Mus musculus; assay: Toxicity in albino mouse assessed as tissue damage; type: organism-based; details: in vivo
Escherichia coli [4] = assay: Bacteriostatic activity against Escherichia coli 9723 at 5 to 15 X 10^-5 mole/10 ml after 5 to 25 hrs by spectrophotometric analysis; type: functional, organism-based
Escherichia coli [5] = assay: Bacteriostatic activity against Escherichia coli 9723 at 5 to 15 X 10^-5 mole/10 ml after 5 to 25 hrs by spectrophotometric analysis in presence of D-methionine; type: functional, organism-based
Escherichia coli [6] = assay: Bacteriostatic activity against Escherichia coli 9723 at 5 to 15 X 10^-5 mole/10 ml after 5 to 25 hrs by spectrophotometric analysis in presence of L-methionine; type: functional, organism-based
[7] = Drug excretion in albino mouse feces at 2 mg, sc after 24 hrs; type: ADME, organism-based; details: faeces, read-out: Drug excretion
[8] = Drug excretion in albino mouse urine at 2 mg, sc after 24 hrs; type: ADME, organism-based; details: read-out: Drug excretion
Escherichia coli [9] = assay: Bacteriostatic activity against Escherichia coli 9723 after 8 hrs by spectrophotometric analysis; type: functional
Escherichia coli [10] = assay: Bacteriostatic activity against Escherichia coli 9723 after 19 hrs by spectrophotometric analysis; type: functional
Escherichia coli [11] = assay: Bacteriostatic activity against Escherichia coli 9723 at 5 to 15 X 10^-5 mole/10 ml after 5 to 25 hrs by spectrophotometric analysis in presence of L-phenylalanine; type: functional, organism-based

With CC(N)(C(=O)O)C1CC1 (stereo not given) the Activity (Mus musculus [1]) was “Non-toxic”, the Rf [2] was 0.56 and the Activity (Mus musculus [3]) was “Non-toxic”.
In the case of C=CCCC(C)(N)C(=O)O (stereo not given), the Activity (Escherichia coli [4]) is reported as “Active”, the Activity (Escherichia coli [5]) is reported as “inactive” and the Activity (Escherichia coli [6]) is reported as “inactive”. The Activity (Mus musculus [1]) was “Non-toxic”, the dose excreted at 24 h [7] was 2.2% and the dose excreted at 24 h [8] was 97.6%. It also gave a GI90 (Escherichia coli [9]) of 0.0013 M, a GI90 (Escherichia coli [10]) of 0.01 M and a Rf [2] of 0.71. The Activity (Mus musculus [3]) was “Non-toxic”.
With CC[C@](N)(Cc1ccccc1)C(=O)O the Activity (Escherichia coli [4]) was “Active”, the Activity (Escherichia coli [11]) was “inactive” and the Activity (Mus musculus [1]) was “Non-toxic”. For the same compound, the dose excreted at 24 h [7] was 2.1%, the dose excreted at 24 h [8] was 97.9% and the GI90 (Escherichia coli [9]) was 0.0025 M. For the same compound, the GI90 (Escherichia coli [10]) was 0.005 M, the Rf [2] was 0.77 and the Activity (Mus musculus [3]) was “Non-toxic”.
In the case of NC(C(=O)O)(C1CC1)C1CC1, the Activity (Mus musculus [1]) is reported as “Non-toxic”, the Rf [2] is reported as 0.64 and the Activity (Mus musculus [3]) is reported as “Non-toxic”.

— ChEMBL document CHEMBL3272321, “Preliminary biological studies of certain amino acid analogues” (J Med Chem, 1976)
